Measured values as given in ChEMBL document CHEMBL1201862, “PubChem BioAssay data set” (2004).
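Interpolation was linear, between the two tested concentrations surrounding the appropriate level; five concentrations were tested over 48 hours in 96-well plates. GI50 is the concentration that inhibits growth by half.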 Active and inactive are the calls of the source. No stated cut-off is given here; in the data, active = GI50 up to about 1.1 µM and inactive = higher.

How the values were obtained:
Test in all cases: DTP human tumour cell line panel, 48 h
[1] = test system: BT-549
[2] = test system: RXF 393
[3] = test system: SF-268
[4] = test system: UACC-62
[5] = test system: HCT-15
[6] = test system: DU-145
[7] = test system: SN12C
[8] = test system: HT-29
[9] = test system: HOP-62
[10] = test system: EKVX
[11] = test system: OVCAR-5
[12] = test system: HL-60
[13] = test system: MDA-MB-435
[14] = test system: SR
[15] = test system: SW-620
[16] = test system: COLO 205
[17] = test system: SK-MEL-5
[18] = test system: UO-31
[19] = test system: MCF7
[20] = test system: M14
[21] = test system: 786-0
[22] = test system: SK-OV-3
[23] = test system: TK-10
[24] = test system: Hs-578T
[25] = test system: A498
[26] = test system: A549
[27] = test system: NCI-H460
[28] = test system: Malme-3M
[29] = test system: IGROV-1
[30] = test system: PC-3
[31] = test system: NCI/ADR-RES
[32] = test system: NCI-H23
[33] = test system: UACC-257
[34] = test system: MOLT-4
[35] = test system: LOX IMVI
[36] = test system: SNB-19
[37] = test system: CCRF-CEM
[38] = test system: ACHN
[39] = test system: SK-MEL-2
[40] = test system: K562
[41] = test system: NCI-H226
[42] = test system: RPMI-8226
[43] = test system: HOP-92
[44] = test system: NCI-H522
[45] = test system: SF-295
[46] = test system: KM12
[47] = test system: T47D
[48] = test system: HCT-116
[49] = test system: SNB-75
[50] = test system: MDA-N
[51] = test system: OVCAR-4
[52] = test system: CAKI-1
[53] = test system: OVCAR-3
[54] = test system: U-251
[55] = test system: SF-539
[56] = test system: OVCAR-8

Compound: CCOC(=O)CCC(C(=O)OCC)n1nnc2ccc(Nc3c(C)[n+]([O-])c4ccc(Cl)cc4[n+]3[O-])cc21 (stereo unspecified)
- GI50 [1]: 54.3 µM (inactive)
- GI50 [2]: 26.9 µM (inactive)
- GI50 [3]: 23.5 µM (inactive)
- GI50 [4]: 30.4 µM (inactive)
- GI50 [5]: 27.9 µM
- GI50 [6]: 50.6 µM (inactive)
- GI50 [7]: 46.2 µM (inactive)
- GI50 [8]: 52.7 µM (inactive)
- GI50 [9]: 36.1 µM (inactive)
- GI50 [10]: 17.1 µM (inactive)
- GI50 [11]: 54.1 µM (inactive)
- GI50 [12]: 39.2 µM (inactive)
- GI50 [13]: 51.9 µM (inactive)
- GI50 [14]: 33 µM (inactive)
- GI50 [15]: 54 µM (inactive)
- GI50 [16]: 37.4 µM (inactive)
- GI50 [17]: 39.4 µM (inactive)
- GI50 [18]: 42.2 µM (inactive)
- GI50 [19]: 19.9 µM (inactive)
- GI50 [20]: 37.5 µM (inactive)
- GI50 [21]: 44 µM (inactive)
- GI50 [22]: 60.1 µM (inactive)
- GI50 [23]: 66.2 µM (inactive)
- GI50 [24]: > 100 µM (inactive)
- GI50 [25]: > 100 µM (inactive)
- GI50 [26]: 57.3 µM (inactive)
- GI50 [27]: 49.7 µM (inactive)
- GI50 [28]: > 100 µM (inactive)
- GI50 [29]: 40.5 µM (inactive)
- GI50 [30]: > 100 µM (inactive)
- GI50 [31]: 28.3 µM (inactive)
- GI50 [32]: 33.5 µM (inactive)
- GI50 [33]: 19.2 µM (inactive)
- GI50 [34]: 34.5 µM (inactive)
- GI50 [35]: 28.8 µM (inactive)
- GI50 [36]: > 100 µM (inactive)
- GI50 [37]: 35 µM (inactive)
- GI50 [38]: 28.6 µM (inactive)
- GI50 [39]: 30.9 µM (inactive)
- GI50 [40]: 45.8 µM (inactive)
- GI50 [41]: 22.4 µM (inactive)
- GI50 [42]: 28.6 µM (inactive)
- GI50 [43]: 23.8 µM (inactive)
- GI50 [44]: 43.4 µM (inactive)
- GI50 [45]: 27.8 µM (inactive)
- GI50 [46]: 91.2 µM (inactive)
- GI50 [47]: 34 µM (inactive)
- GI50 [48]: 40.2 µM (inactive)
- GI50 [49]: 31.4 µM (inactive)
- GI50 [50]: 54.7 µM (inactive)
- GI50 [51]: 33.8 µM (inactive)
- GI50 [52]: 49.2 µM (inactive)
- GI50 [53]: 32.1 µM (inactive)
- GI50 [54]: 46.3 µM (inactive)
- GI50 [55]: 38.5 µM (inactive)
- GI50 [56]: 39.2 µM (inactive)
